Measured values from US5747535A, “Selective thrombin inhibitors” (priority 1995, dated 1998).
Like-named read-outs stand apart in the source and are kept apart here.

Experiments:
[1] = molecular target: T1, bovine thrombin (Bos taurus, UniProt P00735); details: for Ki: read-out: Inhibitory activity for thrombin, Ki, bovine thrombin, pH 7.8, initial velocity, reaction started with enzyme;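 for all read-outs here: bovine thrombin cleaving the chromogenic substrate Chromozym TH, with para-nitroaniline release tracked as absorbance change over time to give initial rates, in Tris buffer at pH 7.8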
Excerpt: (§1) The thrombin inhibitory effect of the compound of formula (I) according to the present invention can be identified by determination of a dissociation constant Ki represented by the following equation according to the known method described in literature [see, Methods in enzymology V. 80,p341-361;Biochemistry 27,p2144-2151 (1988)].
(§2) The dissociation constant Ki denotes the degree of dissociation of the enzyme-thrombin inhibitor complex. […] Such dissociation constant can be determined by reacting thrombin with a certain substrate which develops a color when it is hydrolyzed by the action of thrombin, and then measuring the degree of color development as a function of time by means of spectrophotometry.
(§3) Chromozym TH is hydrolyzed by thrombin to produce yellow para-nitroaniline. Accordingly, the amount of yellow para-nitroaniline thus produced can be measured as the change of absorbance in the course of time to determine the thrombin inhibitory activity of the compound according to the present invention. That is, the enzyme activity can be determined from the rate of change in absorbance and then can be directly connected with the ability of the thrombin inhibitor to inhibit the enzyme activity (see, Methods in Enzymology, V. 80,p341-361,Biochemistry 27, p2144-2151, 1988).
(§4) The ability of the compound according to the present invention to inhibit the thrombin activity was determined as described in the following.
(§5) 1160 μl of 0.1M tris buffered solution (pH 7.8) containing 150 mM NaCl and 0.1% PEG 8000 (polyethylene glycol, molecular weight about 8,000) was added to a 1.5 ml cuvette. Chromozym TH was dissolved in dimethylsulfoxide(DMSO) in the concentration of 10mM and the resulting solution was diluted with the said tris buffered solution to the concentration of 0.1 mM, which was then used as the substrate solution. 225 μl of 0.1 mM substrate solution thus prepared was added to the cuvette. The inhibitor solution was prepared by dissolving the thrombin inhibitor compound according to the present invention in dimethylsulfoxide in the concentration of 10 mg/ml and then diluting the resulting solution with the said tris buffered solution to the concentration of 0.1 mg/ml, 0.01 mg/ml, 0.001 mg/ml and 0.0001 mg/ml. The resulting inhibitor solution was taken in an amount corresponding to 0 to 10 μg as the inhibitor and then diluted with tris buffered solution to make the total volume of 100 μl which was added to the cuvette.
(§6) 15 μl of bovine thrombin solution dissolved in above tris buffered solution in the concentration of 0.1 mg/ml was added to the cuvette to initiate the enzyme hydrolysis reaction. The amount of para-nitroaniline produced for 2 minutes from the moment the enzyme is added was monitored by measuring the absorbance at 381 nm. The continuous spectrum of absorbance to reaction time was depicted. The same experiments were conducted for various concentration of the inhibitor to obtain the continuous spectrum.
(§7) In each spectrum, the initial velocity Vi was obtained from the slope within initial 30 seconds of the reaction time and then a graph for the reciprocal value of initial velocity(1/Vi) to the inhibitor concentration was depicted. From the graph, the primary equation satisfying the points depicted thereon was obtained and then the value Ki was calculated from the x intercept of the primary equation using the enzyme reaction equation.
(§8) The velocity constant Ks was obtained using the same solution in the same concentration as in determination of the value Ki but using the following experimental procedure.

[2] = molecular target: T2, trypsin (Bos taurus, UniProt P00760); assay: biochemical; type: biochemical; details: 20 μM substrate; read-out: Inhibitory activity for trypsin, Ki
T2 sequence (P00760 24-246): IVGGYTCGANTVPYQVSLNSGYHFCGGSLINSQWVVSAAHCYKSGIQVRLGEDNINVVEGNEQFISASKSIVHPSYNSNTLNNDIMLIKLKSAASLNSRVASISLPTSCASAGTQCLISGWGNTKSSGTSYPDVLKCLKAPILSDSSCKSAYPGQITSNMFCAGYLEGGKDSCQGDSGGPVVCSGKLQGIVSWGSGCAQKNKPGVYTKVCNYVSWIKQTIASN
Experimental: To identify the selectivity for thrombin over trypsin of the compound of the present invention, the inhibitory activity for trypsin of the compound of formula (I) is measured as Ki value according to the same method as the above method for determination of thrombin inhibitory activity, and then the ratio of the activity for trypsin to the activity for thrombin is calculated. In this case, the procedure for determination of inhibitory activity for trypsin is substantially identical to that for thrombin, except that N-benzoyl-Val-Gly-Arg para-nitroanilide hydrochloride is used as the substrate.
As the substrate 20μM solution of N-benzoyl-Val-Gly-Arg-p-nitroanilide hydrochloride was used, and the inhibitor was used in various concnetrations within the range of […]. In addition, trypsin was dissolved in 0.1N HCl, adjusted to the concentration of 45 μg/ml with the said tris buffered solution just before the experiment, and then used in an amount of 40μl. As in the experiment for thrombin, a total volume of the reaction solution was 1.5 ml and the remaining procedure was conducted in the same manner.

[3] = molecular target: T1, bovine thrombin; assay: biochemical
Excerpt: as §1, §2, §3, §4, §5, §6, §7, §8

[4] = tested on: thrombin over trypsin; details: literature; cited from earlier work

CCCCN(C)C(=O)[C@H](Cc1ccc(C(=N)NN)cc1)NS(=O)(=O)c1ccc2ccccc2c1 [Example 2, (S)-N-butyl-N-methyl-3-(4-amidrazonophenyl)-2-(2-naphthylsulfonylamino)propionamide]
Ki [1]: 41 nM

CCCN(C(=O)[C@H](Cc1ccc(C(=N)NN)cc1)NS(=O)(=O)c1ccc2ccccc2c1)C1CCCC1 [Example 3, (S)-N-cyclopentyl-N-propyl-3-(4-amidrazonophenyl)-2-(2-naphthylsulfonylamino)propionamide]
Ki [1]: 93 nM

CCCCN(C(=O)[C@H](Cc1ccc(C(=N)NN)cc1)NS(=O)(=O)c1ccc2ccccc2c1)C1CCCC1 [Example 5, (S)-N-cyclopentyl-N-butyl-3-(4-amidrazonophenyl)-2-(2-naphthylsulfonylamino)propionamide]
Ki [1]: 231 nM

CNC(=N)c1ccc(C[C@H](NS(=O)(=O)c2ccc3ccccc3c2)C(=O)N(C)C2CCCC2)cc1 [Example 7, (S)-N-cyclopentyl-N-methyl-3-[4-(methylamidino)phenyl]-2-(2-naphthylsulfonylamino)propionamide]
Ki [2]: 363000 nM | Ki [3]: 13.8 nM

N=C(NN)c1ccc(C[C@H](NS(=O)(=O)c2ccc3ccccc3c2)C(=O)N(O)C2CCCC2)cc1 [Example 10, (S)-N-cyclopentyl-N-hydroxy-3-(4-amidrazonophenyl)-2-(2-naphthylsulfonylamino)propionamide]
Ki [1]: 367 nM

CN(C(=O)[C@H](Cc1ccc(C(=N)NN)cc1)NS(=O)(=O)c1ccc2ccccc2c1)C1CCCCC1 [Example 15, (S)-N-cyclohexyl-N-methyl-3-(4-amidrazonophenyl)-2-(2-naphthylsulfonylamino)propionamide]
Ki [1]: 152 nM

CN(C(=O)[C@H](Cc1ccc(C(=N)NN)cc1)NS(=O)(=O)c1ccc2ccccc2c1)C1CC1 [Example 16, (S)-N-cyclopropyl-N-methyl-3-(4-amidrazonophenyl)-2-(2-naphthylsulfonylamino)propionamide]
Ki [1]: 247 nM

CN(C)c1cccc2c(S(=O)(=O)N[C@@H](Cc3ccc(C(=N)NN)cc3)C(=O)N(C)C3CCCC3)cccc12 [Example 18, (S)-3-[4-(amidrazono)-phenyl]-N-cyclopentyl-N-methyl-2-(5-dimethylamino-naphthalene-1-sulfonylamino)-propionamide]
Ki [2]: 3980 nM | Ki [3]: 11 nM

COc1cccc2c(S(=O)(=O)N[C@@H](Cc3ccc(C(=N)NN)cc3)C(=O)N(C)C3CCCC3)cccc12 [Example 19, (S)-3-[4-(amidrazono)-phenyl]-N-cyclopentyl-N-methyl-2-(5-methoxy-naphthalene-1-sulfonylamino)-propionamide]
Ki [2]: 5250 nM | Ki [3]: 5.3 nM

COc1cc2ccc(S(=O)(=O)N[C@@H](Cc3ccc(C(=N)NN)cc3)C(=O)N(C)C3CCCC3)cc2cc1OC [Example 20, (S)-3-[4-(amidrazono)-phenyl]-N-cyclopentyl-N-methyl-2-(6,7-dimethoxy-naphthalene-2-sulfonylamino)-propionamide]
Ki [2]: 2300 nM | Ki [3]: 21.7 nM

CNC(=N)c1ccc(C[C@H](NS(=O)(=O)c2cccc3c(N(C)C)cccc23)C(=O)N(C)C2CCCC2)cc1 [Example 21, (S)-3-[4-(methylamidino)-phenyl]-N-cyclopentyl-N-methyl-2-(5-dimethylamino-naphthalene-1-sulfonylamino)-propionamide]
Ki [2]: > 100000 nM | Ki [3]: 25 nM

CN(C(=O)[C@H](Cc1ccc(C(=N)NN)cc1)NC(=O)COc1cccc2ccccc12)C1CCCC1 [Example 23, (S)-3-[4-(amidrazono)-phenyl]-N-cyclopentyl-N-methyl-2-[2-(naphthalen-1-yl-oxy)acetylamino]-propionamide]
Ki [2]: 21700 nM | Ki [3]: 2590 nM

CCCCN(CC(=O)OC)C(=O)[C@H](Cc1ccc(C(=N)NN)cc1)NS(=O)(=O)c1ccc2ccccc2c1 [Example 39, {[3-(4-amidrazono-phenyl)-(S)-2-(naphthalene-2-sulfonylamino)-propionyl]-butylamino}-acetic acid methyl ester]
Ki [3]: 165 nM

CCOC(=O)C1CCCC1N(C)C(=O)[C@H](Cc1ccc(C(=N)NN)cc1)NS(=O)(=O)c1ccc2ccccc2c1 (stereo partly drawn) [Example 45, 2-{[3-(4-amidrazono-phenyl)-(S)-2-(naphthalene-2-sulfonylamino)-propionyl]-methylamino}-cyclopentane carboxylic acid ethyl ester]
Ki [3]: 346 nM

CN(C(=O)[C@H](Cc1ccc(C(=N)NN)cc1)NS(=O)(=O)c1ccc2ccccc2c1)C1CCCC1C(=O)O (stereo partly drawn) [Example 46, 2-{[3-(4-amidrazono-phenyl)-(S)-2-(naphthalene-2-sulfonylamino)-propionyl]-methylamino}-cyclopentane carboxylic acid]
Ki [3]: 880 nM

COC(=O)[C@H](C(C)C)N(C)C(=O)[C@H](Cc1ccc(C(=N)NN)cc1)NS(=O)(=O)c1ccc2ccccc2c1 [Example 47, (S)-2-{[3-(4-amidrazono-phenyl)-(S)-2-(naphthalene-2-sulfonylamino)-propionyl]-methylamino}-3-methyl-butyric acid methyl ester]
Ki [3]: 665 nM

COC(=O)[C@H]1CCCCN1C(=O)[C@H](Cc1ccc(C(=N)NN)cc1)NS(=O)(=O)c1ccc2ccccc2c1 [Example 48, 1-[3-(4-amidrazono-phenyl)-(S)-2-(naphthalene-2-sulfonylamino)-propionyl]-piperidine-(R)-2-carboxylic acid methyl ester]
Ki [3]: 13 nM

N=C(NN)c1ccc(C[C@H](NS(=O)(=O)c2ccc3ccccc3c2)C(=O)N2CCCC[C@@H]2C(=O)O)cc1 [Example 49, 1-[3-(4-amidrazono-phenyl)-(S)-2-(naphthalene-2-sulfonylamino)-propionyl]-piperidine-(R)-2-carboxylic acid]
Ki [3]: 406 nM

CS(=O)(=O)N1CCN(C(=O)[C@H](Cc2ccc(C(=N)NN)cc2)NS(=O)(=O)c2ccc3ccccc3c2)CC1 [Example 50, (S)-naphthalene-2-sulfonic acid [1-(4-amidrazono)benzyl-2-(4-methylsulfonyl-piperazinyl)-2-oxoethyl]amide]
Ki [2]: 5790 nM | Ki [3]: 11 nM

CCOC(=O)N1CCN(C(=O)[C@H](Cc2ccc(C(=N)NN)cc2)NS(=O)(=O)c2ccc3ccccc3c2)CC1 [Example 51, (S)-naphthalene-2-sulfonic acid [1-(4-amidrazono)benzyl-2-oxo-2-(4-ethoxycarbonyl-piperazinyl)-ethyl]amide]
Ki [3]: 3300 nM

N=C(NN)c1ccc(C[C@H](NS(=O)(=O)c2ccc3ccccc3c2)C(=O)N2CCN(C=O)CC2)cc1 [Example 52, (S)-naphthalene-2-sulfonic acid [1-(4-amidrazono)benzyl-2-(4-formyl-piperazinyl)-2-oxoethyl]amide]
Ki [3]: 50 nM

CCN1CCN(C(=O)[C@H](Cc2ccc(C(=N)NN)cc2)NS(=O)(=O)c2ccc3ccccc3c2)CC1 [Example 53, (S)-naphthalene-2-sulfonic acid [1-(4-amidrazono)benzyl-2-(4-ethyl-piperazinyl)-2-oxoethyl]amide]
Ki [3]: 530 nM

N=C(NN)c1ccc(C[C@H](NS(=O)(=O)c2ccc3ccccc3c2)C(=O)N2CCN(c3ccccc3)CC2)cc1 [Example 54, (S)-naphthalene-2-sulfonic acid [1-(4-amidrazono)benzyl-2-oxo-2-(4-phenyl-piperazinyl)-ethyl]amide]
Ki [3]: 5380 nM

N=C(NN)c1ccc(C[C@H](NS(=O)(=O)c2ccc3ccccc3c2)C(=O)N2CCN(c3cccc(C(F)(F)F)c3)CC2)cc1 [Example 55, (S)-naphthalene-2-sulfonic acid [1-(4-amidrazono)-benzyl-2-oxo-2-[-4-(3-trifluoromethyl-phenyl)-piperazinyl]-ethyl]-amide]
Ki [3]: 10000 nM

CC(=O)N1CCN(C(=O)[C@H](Cc2ccc(C(=N)NN)cc2)NS(=O)(=O)c2ccc3ccccc3c2)CC1 [Example 56, (S)-naphthalene-2-sulfonic acid [2-(4-acetyl-piperazinyl)-1-(4-amidrazono)benzyl-2-oxoethyl]amide]
Ki [3]: 280 nM

N=C(NN)c1ccc(C[C@H](NS(=O)(=O)c2ccc3ccccc3c2)C(=O)N2CCN(CCO)CC2)cc1 [Example 57, (S)-naphthalene-2-sulfonic acid [1-(4-amidrazono)benzyl-2-oxo-2-[4-(2-hydroxyethyl)-piperazinyl]-ethyl]amide]
Ki [3]: 88 nM

CCOc1ccccc1N1CCN(C(=O)[C@H](Cc2ccc(C(=N)NN)cc2)NS(=O)(=O)c2ccc3ccccc3c2)CC1 [Example 58, (S)-naphthalene-2-sulfonic acid [1-(4-amidrazono)benzyl-2-oxo-2-[4-(2-ethoxyphenyl)-piperazinyl]-ethyl]amide]
Ki [3]: 9130 nM

N=C(N)c1ccc(CC(NC(=O)CNS(=O)(=O)c2ccc3ccccc3c2)C(=O)N2CCCCC2)cc1 (stereo not drawn) [NAPAP]
thrombin inhibitory activity relative to activity for trypsin (selectivity) [4]: 50 times

Gly-Pro-Arg-4-nitroanilide acetate [Chromozym TH, reference compound]
Km ([1]; substrate of thrombin, constant enzyme concentration): 8.3 µM
